Here are results for 7 molecules from publication PMC11592078, “Synthesis, Analytical Characterization, and Human CB1 Receptor Binding Studies of the Chloroindole Analogues of the Synthetic Cannabinoid MDMB-CHMICA” (Biomolecules, 2024).

Read-outs that look alike come from different tables or passages of the source.

Assay [1] addresses T1, hCB1 receptor (Homo sapiens, UniProt P21554).
T1 construct: purchased Perkin Elmer; host or cells: HEK293-EBNA
Nature of the assay: competitive ligand binding assay with [3H]-CP-55,940 on hCB1 membrane preparations of HEK293-EBNA cells.

Assay [2] concerns the target T1, hCB1 receptor. Set-up: method as in earlier work. As to conditions: read-out: Ki at hCB1; comparable assay setup; ref 31 (Schoeder et al.); cited from earlier work.

T1 sequence (P21554 whole entry): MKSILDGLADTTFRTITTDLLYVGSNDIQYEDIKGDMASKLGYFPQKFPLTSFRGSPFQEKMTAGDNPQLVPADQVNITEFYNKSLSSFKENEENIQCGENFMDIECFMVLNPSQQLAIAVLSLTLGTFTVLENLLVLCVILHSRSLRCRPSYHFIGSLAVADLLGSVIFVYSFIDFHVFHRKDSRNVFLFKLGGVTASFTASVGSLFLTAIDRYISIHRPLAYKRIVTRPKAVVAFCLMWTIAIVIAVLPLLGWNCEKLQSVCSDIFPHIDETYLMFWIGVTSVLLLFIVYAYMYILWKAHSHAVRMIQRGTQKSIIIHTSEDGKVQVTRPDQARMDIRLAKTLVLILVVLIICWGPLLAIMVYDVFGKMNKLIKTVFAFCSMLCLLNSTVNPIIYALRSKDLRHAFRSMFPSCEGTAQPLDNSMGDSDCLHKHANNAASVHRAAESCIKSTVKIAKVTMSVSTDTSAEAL

On to `COC(=O)[C@@H](NC(=O)c1cn(CC2CCCCC2)c2cccc(Cl)c12)C(C)(C)C` [4-Chloro-MDMB-CHMICA, Methyl (S)-2-(4-chloro-1-(cyclohexylmethyl)-1H-indole-3-carboxamido)-3,3-dimethylbutanoate], for which, in assay [1], the IC50 was 268 nM and the affinity corresponds to a Ki of 6.55 nM.
As for `COC(=O)C(NC(=O)c1cn(CC2CCCCC2)c2ccccc12)C(C)(C)C` (stereo not drawn) [MDMB-CHMICA, Methyl 2-[[1-(cyclohexylmethyl)-1H-indole-3-carbonyl]amino]-3,3-dimethylbutanoate], the values for the Ki in assay [1] and in assay [2] were 0.951 nM and 0.41 ± 0.141 nM, respectively.
In assay [1], `COC(=O)[C@@H](NC(=O)c1cn(CC2CCCCC2)c2ccc(Cl)cc12)C(C)(C)C` [5-Chloro-MDMB-CHMICA, Methyl (S)-2-(5-chloro-1-(cyclohexylmethyl)-1H-indole3-carboxamido)-3,3-dimethylbutanoate] yielded an IC50 of 402 nM and a Ki of 9.81 nM.
For `CCCCCn1cc(C(=O)c2cccc3ccccc23)c2ccccc21` [JWH-018, naphthalen-1-yl(1-pentyl-1H-indol-3-yl)methanone, reference compound] the same measures were 103 nM and 2.69 nM.
In assay [1], `COC(=O)[C@@H](NC(=O)c1cn(CC2CCCCC2)c2cc(Cl)ccc12)C(C)(C)C` [6-Chloro-MDMB-CHMICA, Methyl (S)-2-(6-chloro-1-(cyclohexylmethyl)-1H-indole-3-carboxamido)-3,3-dimethylbutanoate] had an IC50 of 31.6 nM and a Ki of 0.77 nM.
In assay [1], `COC(=O)[C@@H](NC(=O)c1cn(CC2CCCCC2)c2c(Cl)cccc12)C(C)(C)C` [7-Chloro-MDMB-CHMICA, Methyl (S)-2-(7-chloro-1-(cyclohexylmethyl)-1H-indole-3-carboxamido)-3,3-dimethylbutanoate] registered an IC50 of 28.8 nM and a Ki of 0.7 nM.
In assay [1], `COC(=O)[C@@H](NC(=O)c1c(Cl)n(CC2CCCCC2)c2ccccc12)C(C)(C)C` [2-Chloro-MDMB-CHMICA, Methyl (S)-2-(2-chloro-1-(cyclohexylmethyl)-1H-indole-3-carboxamido)-3,3-dimethylbutanoate] had an IC50 of 23.6 nM and a Ki of 0.58 nM. Besides, the “rank of Ki among the chloro analogues” value in assay [1] (comparison of the substitution positions) was “lowest Ki value”.
